Laboratory results as given in PubChem BioAssay (NCI).
“And” between values parts separate entries of the source, which are not always exact repeats. Identical values can stand only once.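 Exposure lasted 48 hours, with cells grown in 96-well plates and compounds tested at five concentrations. GI50: concentration for 50% inhibition of growth. TGI: total growth inhibition.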

Columns and labels:
Test in all cases: NCI-60 cell line screen, 48 h
[1] = tested on: HCC-2998 colon
[2] = tested on: SF-295 CNS
[3] = tested on: OVCAR-4 ovarian
[4] = tested on: MDA-MB-435
[5] = tested on: MDA-MB-231 breast
[6] = tested on: SK-OV-3 ovarian
[7] = tested on: EKVX NSCLC
[8] = tested on: HCT-116 colon
[9] = tested on: TK-10 renal
[10] = tested on: ACHN renal
[11] = tested on: SF-539 CNS

SMILES | TGI [1] | TGI [2] | TGI [3] | TGI [4] | TGI [5] | TGI [6] | TGI [7] | TGI [8] | TGI [9] | TGI [10] | TGI [11] | GI50 [3] | GI50 [5] | GI50 [9]
C=C(CC)C[C@@H]1C[C@]2(C(=O)OC)c3[nH]c4ccccc4c3CCN2C1=O | 34.1 µM | 31.1 µM | > 100 µM | 43.7 µM | 54.7 µM | 63.9 µM | 85.5 µM | 29.6 µM | > 100 µM | 76 µM | 30.9 µM |  |  | 
O=C1C(NS(=O)(=O)c2ccccc2)=C(N(Cc2ccccc2)Cc2ccccc2)C(=O)c2ccccc21 |  | > 100 µM | 59 µM | > 100 µM | > 100 µM | > 100 µM | > 100 µM | > 100 µM | > 100 µM | > 100 µM | > 100 µM |  |  | 
COC(=O)C1(C)OC(C)=NC1(C(=O)OC)C(=O)OC (stereo not given) | > 100 µM | > 100 µM | > 100 µM | > 100 µM | > 100 µM | > 100 µM | > 100 µM | > 100 µM | > 100 µM | > 100 µM | > 100 µM |  |  | 
C[N+]12CCCCC1C(CN1C(=O)c3ccccc3C1=O)CCC2 (stereo not given) | > 100 µM | > 100 µM | > 100 µM | > 100 µM | > 100 µM | > 100 µM | > 100 µM | > 100 µM | > 100 µM | > 100 µM | > 100 µM |  |  | 
CCCCCCC(=O)OC[n+]1cccc(-c2c(COC(=O)NC(C)C)c(COC(=O)NC(C)C)c3n2CCC3)c1 | > 100 µM | > 100 µM | > 69.1 µM | > 100 µM | > 100 µM | > 100 µM | > 100 µM | > 87.2 µM | > 100 µM | 89.1 µM | > 75 µM |  |  | 
COC(=O)[C@@H]1[C@H](O)CC[C@H]2[C@@]1(C)CC[C@@H](C)[C@]2(COC(C)=O)CC(=O)c1ccoc1 |  | > 50 µM | > 50 µM | > 50 µM | > 50 µM | > 50 µM | > 50 µM | > 50 µM | > 50 µM | > 50 µM | > 50 µM |  |  | 
Oc1ccc(Cn2c(-c3ccc(O)cc3)nc3ccccc32)cc1 | > 100 µM | > 100 µM | > 100 µM | > 100 µM | > 100 µM | > 100 µM | > 100 µM | > 100 µM | > 100 µM | > 100 µM | > 100 µM |  |  | 
O=C1Nc2ccc(Br)cc2/C1=C/C(=O)c1ccccc1 | 29 µM | 32.5 µM | 30.5 µM | 42 µM | 29.5 µM | 31.9 µM | 28.6 µM | 9.04 µM | 3.7 µM | 3.32 µM | 13 µM |  |  | 
COc1ccccc1Cn1[nH]c(=O)c2cc([N+](=O)[O-])ccc21 | > 100 µM |  | > 100 µM | > 100 µM | > 100 µM |  | > 100 µM | > 100 µM | > 100 µM | > 100 µM | > 100 µM |  |  | 
CC(=O)Oc1cc(S(=O)(=O)Nc2n[nH]c(N)n2)c(S)cc1Cl | > 100 µM | > 100 µM | > 100 µM | > 100 µM | > 100 µM |  | > 100 µM | > 100 µM | > 100 µM | > 100 µM | > 100 µM |  |  | 
CCSC12CC3c4cccc5c4C(CN5C(=O)c4ccccc4)CC3(O1)N(C)C2=O (stereo not given) |  | > 100 µM | > 100 µM | > 100 µM | > 100 µM | > 100 µM | 83.4 µM | > 100 µM | > 100 µM | > 100 µM | > 100 µM |  |  | 
CC(Nc1n[nH]c(=O)c2c1nnn2Cc1ccccc1)c1ccccc1 (stereo not given) | > 100 µM | > 100 µM and 61.1 µM | > 100 µM | > 100 µM | > 100 µM |  | > 100 µM | > 100 µM | > 100 µM and 64.7 µM | > 100 µM |  | > 100 µM and 26.8 µM | > 100 µM and 49.8 µM | 89.3 µM and 23.4 µM
COC(=O)CCC1(O)C=CC(=O)C=C1 | > 100 µM | > 100 µM | > 100 µM | > 100 µM | > 100 µM |  | > 100 µM | > 100 µM | > 100 µM | > 100 µM | 76.4 µM |  |  | 
CC/C=C/C(/C=C/C[C@]1(CC)C[C@H](CC)[C@H](CC(=O)O)OO1)CC (stereo not given in full) |  | 5.02 µM | 3 µM | 4.46 µM | 14.3 µM | 19.2 µM | 3.77 µM | 6.81 µM | 3.69 µM | 3.61 µM | 4.07 µM |  |  | 
C=CCC1C2CCC(O[Si](C(C)C)(C(C)C)C(C)C)(C(C(=O)OC)C2)C1O (stereo not given) |  | > 100 µM | > 100 µM | > 100 µM | > 100 µM | > 100 µM | > 100 µM | 58.2 µM | > 100 µM | > 100 µM | > 100 µM |  |  | 
Cc1ccc(N2C(=O)C(=O)N(/N=C3\C(=O)Nc4ccccc43)C2=S)cc1 | > 100 µM | > 100 µM |  | > 100 µM | > 100 µM | > 100 µM | > 100 µM | > 100 µM | > 100 µM | > 100 µM | > 100 µM |  |  | 
COc1cc2c(cc1OCCCCN1CCN(CCCCOc3cc4c(cc3OC)C(=O)N3CCC[C@H]3C=N4)CC1)N=C[C@@H]1CCCN1C2=O |  | 0.242 µM | 12 µM | 0.165 µM | 0.182 µM | > 100 µM | 7.85 µM | 22.5 µM | 0.263 µM | > 100 µM | 0.0692 µM |  |  | 
CC(C)(CN)SCc1ccccc1 |  | > 100 µM | > 100 µM | > 100 µM | > 100 µM | > 100 µM | > 100 µM | > 100 µM | > 100 µM | > 100 µM | > 100 µM |  |  | 
Cc1cn2c(/C=C3/C(=O)Nc4ccccc43)c(C)nc2s1 | 19.5 µM | > 100 µM |  | 0.619 µM | 43.4 µM | 25.7 µM | > 100 µM | 15.5 µM | > 100 µM | > 100 µM | 7.83 µM |  |  | 
COC1C(OC(N)=O)C(O)C(Oc2ccc3c(O)c(NC(=O)c4ccc(O)c(CC=C(C)C)c4)c(=O)oc3c2C)OC1(C)C (stereo not given) | > 100 µM |  |  | > 100 µM | > 100 µM | > 100 µM | > 100 µM | > 100 µM |  | > 100 µM | > 100 µM |  |  | 
